Reference: patent US20170056380A1, “Systems, Methods, Techniques, and Compounds in Research and Treatment of Portal Hypertension and other Conditions” (priority 2014, published 2017)

Test system: NO production in sinusoidal endothelial cells
Test: NO measurement (nitrite in conditioned medium of sinusoidal endothelial cells)
Assay type: cell-based, rat
Protocol: Cell isolation and culture. Sinusoidal endothelial cells were isolated from male Sprague-Dawley rats (450-500 g) (Harlan, Indianapolis, Ind.). In brief, after in situ perfusion of the liver with 20 mg/100 mg pronase (Roche Molecular Biochemicals, Indianapolis, Ind.), followed by collagenase (Worthington Biochemical, Lakewood, N.J.), dispersed cell suspensions were removed from a layered discontinuous density gradient of 8.2 and 15.6% Accudenz (Accurate Chemical and Scientific, Westbury, N.Y.), further purified by centrifugal elutriation (18 ml/min flow), and were grown in medium containing 20% serum (10% horse/calf). The purity of endothelial cells was documented by their uptake of fluorescently labeled di-l-acetoacetylated low-density lipoprotein as described (21). Only primary sinusoidal endothelial isolates of >95% purity were used for study. Experiments were performed with cells frorrr a minimum three different isolations (for all experiments).
Animal model of liver injury and portal hypedension. Liver injury and portal hypertension were induced by performing bile duct ligation in 450- to 500-gram male retired breeder Sprague-Dawley rats as described in Liu and 20- to 25-gram male BALB/c mice. Briefly, bile duct ligation was performed by surgical isolation and ligation of the common bile duct. This model creates a portal-based fibrogenic response and portal hypertension 10-14 days after surgery (Liu). For study of injured sinusoidal endothelial cells, we used the rat model of bile duct ligation (10-14 days postsurgery); for in vivo study (primarily to conserve the use of active compound), we used the mouse model of bile duct ligation (examining portal pressure 4 wk postsurgery). In sham-operated rats or mice, laparotomy without isolation and section of the bile duct was performed. Studies were approved by the local Institutional Animal Care and Use Committees. Portal pressure measurement. Portal hypertension was induced in male BALB/c mice by bile duct ligation as above. Cicletanine (5 mg·kg^−1·day^−1) or vehicle was given by gavage as a single daily dose for 10 days before portal pressure measurement as described in Liue. In brief, mice were anesthetized, and an intravenous catheter (Becton Dickinson Vascular Access, Sandy, Utah) was introduced in the portal vein and secured with a silk tie. A calibrated low-pressure transducer (Digi-Med, Louisville, Ky.) was connected to the portal vein catheter, and portal pressure was recorded continuously using the Digi-Med Integrator 200 System (Digi-bled).
NO measurement. To assess NO production, we analyzed the release of nitrite, the stable breakdown product of NO, using a nitrite/nitrate assay kit (Cayman Chemicals, Ann Arbor, Mich.), following the manufacturer's instructions. Briefly, conditioned medium from sinusoidal endothelial cells with or without cicletanine treatment were loaded on a 96-well plate and mixed with both enzyme cofactor and nitrate reductase. After incubation at room temperature for 3 h, 100 μl Griess reagent mix were added to each well. After 10 more minutes at room temperature, the absorbance of each well was determined on a microplate reader at 540 nm, and the nitrite concentrations were deduced from a standard curve.

SMILES: Cc1ncc2c(c1O)COC2c1ccc(Cl)cc1 (centres unmarked) [cicletanine, 3-(4-chlorophenyl)-1,3-dihydro-7-hydroxy-6-methylfuro-(3,4-c) pyridine]
- dose dependence of effect on nitrite production (50 or 100 nM, 2 h): dose dependent
- nitrite levels in conditioned medium (2 h exposure, normal sinusoidal endothelial cells): significantly increased
- nitrite production (cells transduced with adenovirus 24 h, then cicletanine 100 nM 2 h): stimulated
- time at which nitrite levels started to increase (cicletanine 100 nM, 0-4 h): 30 min
- nitrite production (sinusoidal endothelial cells injured by bile duct ligation, 2 h): increase
